Experimental data published in PubChem BioAssay AID2060492 (Molecular Pharmacology Branch, DTP, NCI, 2025).

Tested on: 695427-040-R-J1-PDC complex spheroids, viability percent T/C
Test: Anticancer human tumor 695427-040-R-J1-PDC patient-derived colon adenocarcinoma cell line growth inhibition [GQUAD]
Conditions: for IC50: curve of first compound; for viability, T/C: stronger effect = lower value
In short: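 Viability of tumor cells grown as complex spheroids with endothelial and stromal cells, exposed to drug combinations. Top concentration at or near clinical Cmax (else 10 microM), diluted in half-log increments.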

[1] = second compound 0.0316 µM, first compound 0.0316 µM
[2] = second compound 0.0316 µM, first compound 0.1 µM
[3] = second compound 0.0316 µM, first compound 0.316 µM
[4] = second compound 0.0316 µM, first compound 1 µM
[5] = second compound 0.0316 µM, first compound 3.16 µM
[6] = second compound 0.0316 µM, first compound 10 µM
[7] = second compound 0.1 µM, first compound 0.0316 µM
[8] = second compound 0.1 µM, first compound 0.1 µM
[9] = second compound 0.1 µM, first compound 0.316 µM
[10] = second compound 0.1 µM, first compound 1 µM
[11] = second compound 0.1 µM, first compound 3.16 µM
[12] = second compound 0.1 µM, first compound 10 µM
[13] = second compound 0.316 µM, first compound 0.0316 µM
[14] = second compound 0.316 µM, first compound 0.1 µM
[15] = second compound 0.316 µM, first compound 0.316 µM
[16] = second compound 0.316 µM, first compound 1 µM
[17] = second compound 0.316 µM, first compound 3.16 µM
[18] = second compound 0.316 µM, first compound 10 µM
[19] = second compound 1 µM, first compound 0.0316 µM
[20] = second compound 1 µM, first compound 0.1 µM
[21] = second compound 1 µM, first compound 0.316 µM
[22] = second compound 1 µM, first compound 1 µM
[23] = second compound 1 µM, first compound 3.16 µM
[24] = second compound 1 µM, first compound 10 µM
[25] = second compound 3.16 µM, first compound 0.0316 µM
[26] = second compound 3.16 µM, first compound 0.1 µM
[27] = second compound 3.16 µM, first compound 0.316 µM
[28] = second compound 3.16 µM, first compound 1 µM
[29] = second compound 3.16 µM, first compound 3.16 µM
[30] = second compound 3.16 µM, first compound 10 µM
[31] = second compound 10 µM, first compound 0.0316 µM
[32] = second compound 10 µM, first compound 0.1 µM
[33] = second compound 10 µM, first compound 0.316 µM
[34] = second compound 10 µM, first compound 1 µM
[35] = second compound 10 µM, first compound 3.16 µM
[36] = second compound 10 µM, first compound 10 µM
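Note: spheroids exposed to compounds for seven days before readout.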

In the case of `COc1cccc2c1C(=O)c1c(O)c3c(c(O)c1C2=O)CC(O)(C(=O)CO)CC3OC1CC(N)C(O)C(C)O1` (stereo not drawn) + Cc1[nH]c2ccc(F)cc2c1-c1nc2c3cccnc3c3ncccc3c2[nH]1, the IC50 (second compound 0.0316 µM) is reported as greater than 10 µM, the IC50 (second compound 0.1 µM) is reported as greater than 10 µM and the IC50 (second compound 0.316 µM) is reported as greater than 10 µM. It also gave an IC50 (second compound 1 µM) greater than 10 µM, an IC50 (second compound 3.16 µM) of 4.85 µM and an IC50 (second compound 10 µM) of 5.56 µM. The viability, T/C [1] was 98.6%, the viability, T/C [2] was 88.4% and the viability, T/C [3] was 96.9%. For the same compound, the viability, T/C [4] was 87.1%, the viability, T/C [5] was 60.6% and the viability, T/C [6] was 50.7%. The viability, T/C [7] was 104%, the viability, T/C [8] was 98.8% and the viability, T/C [9] was 91.3%. For the same compound, the viability, T/C [10] was 71.9%, the viability, T/C [11] was 74.4% and the viability, T/C [12] was 48.9%. The viability, T/C [13] was 95.2%, the viability, T/C [14] was 77.9% and the viability, T/C [15] was 87.1%. It also gave a viability, T/C [16] of 73.8%, a viability, T/C [17] of 71.5% and a viability, T/C [18] of 49.6%. For the same compound, the viability, T/C [19] was 83%, the viability, T/C [20] was 92.4% and the viability, T/C [21] was 78.8%. It also gave a viability, T/C [22] of 72.5%, a viability, T/C [23] of 71.2% and a viability, T/C [24] of 49.6%. For the same compound, the viability, T/C [25] was 59.6%, the viability, T/C [26] was 86.8% and the viability, T/C [27] was 70.4%. It also gave a viability, T/C [28] of 59.4%, a viability, T/C [29] of 56.8% and a viability, T/C [30] of 42.5%. It also gave a viability, T/C [31] of 65.9%, a viability, T/C [32] of 80.1% and a viability, T/C [33] of 65%. The viability, T/C [34] was 70.9%, the viability, T/C [35] was 62.2% and the viability, T/C [36] was 37%.

For `Cc1[nH]c2ccccc2c1CCNCc1ccc(/C=C/C(=O)NO)cc1` + Cc1[nH]c2ccc(F)cc2c1-c1nc2c3cccnc3c3ncccc3c2[nH]1, the IC50 (second compound 0.0316 µM) was greater than 0.316 µM, the IC50 (second compound 0.1 µM) was greater than 0.316 µM and the IC50 (second compound 0.316 µM) was greater than 0.316 µM. The IC50 (second compound 1 µM) was greater than 0.316 µM, the IC50 (second compound 3.16 µM) was greater than 0.316 µM and the IC50 (second compound 10 µM) was greater than 0.316 µM. For the same compound, the viability, T/C (second compound 0.0316 µM, first compound 0.000999 µM) was 109%, the viability, T/C (second compound 0.0316 µM, first compound 0.00316 µM) was 90% and the viability, T/C (second compound 0.0316 µM, first compound 0.00999 µM) was 101%. The viability, T/C [1] was 102%, the viability, T/C (second compound 0.0316 µM, first compound 0.0999 µM) was 106% and the viability, T/C [3] was 94.5%. For the same compound, the viability, T/C (second compound 0.1 µM, first compound 0.000999 µM) was 115%, the viability, T/C (second compound 0.1 µM, first compound 0.00316 µM) was 94.5% and the viability, T/C (second compound 0.1 µM, first compound 0.00999 µM) was 91.1%. The viability, T/C [7] was 93.4%, the viability, T/C (second compound 0.1 µM, first compound 0.0999 µM) was 95.7% and the viability, T/C [9] was 88.6%. It also gave a viability, T/C (second compound 0.316 µM, first compound 0.000999 µM) of 98.8%, a viability, T/C (second compound 0.316 µM, first compound 0.00316 µM) of 84.8% and a viability, T/C (second compound 0.316 µM, first compound 0.00999 µM) of 94.2%. It also gave a viability, T/C [13] of 104%, a viability, T/C (second compound 0.316 µM, first compound 0.0999 µM) of 100% and a viability, T/C [15] of 86.7%. The viability, T/C (second compound 1 µM, first compound 0.000999 µM) was 94.3%, the viability, T/C (second compound 1 µM, first compound 0.00316 µM) was 88.6% and the viability, T/C (second compound 1 µM, first compound 0.00999 µM) was 96.8%. The viability, T/C [19] was 93.5%, the viability, T/C (second compound 1 µM, first compound 0.0999 µM) was 98.9% and the viability, T/C [21] was 90.8%. The viability, T/C (second compound 3.16 µM, first compound 0.000999 µM) was 75.2%, the viability, T/C (second compound 3.16 µM, first compound 0.00316 µM) was 78.3% and the viability, T/C (second compound 3.16 µM, first compound 0.00999 µM) was 86%. The viability, T/C [25] was 74.5%, the viability, T/C (second compound 3.16 µM, first compound 0.0999 µM) was 78% and the viability, T/C [27] was 67.3%. It also gave a viability, T/C (second compound 10 µM, first compound 0.000999 µM) of 74.8%, a viability, T/C (second compound 10 µM, first compound 0.00316 µM) of 77.6% and a viability, T/C (second compound 10 µM, first compound 0.00999 µM) of 71.8%. It also gave a viability, T/C [31] of 75.9%, a viability, T/C (second compound 10 µM, first compound 0.0999 µM) of 74.8% and a viability, T/C [33] of 63.4%.

In the case of `O=C(NO)c1cnc(N2CCN(S(=O)(=O)c3ccc4ccccc4c3)CC2)nc1` + Cc1[nH]c2ccc(F)cc2c1-c1nc2c3cccnc3c3ncccc3c2[nH]1, the IC50 (second compound 0.0316 µM) is reported as greater than 10 µM, the IC50 (second compound 0.1 µM) is reported as greater than 10 µM and the IC50 (second compound 0.316 µM) is reported as greater than 10 µM. It also gave an IC50 (second compound 1 µM) greater than 10 µM, an IC50 (second compound 3.16 µM) greater than 10 µM and an IC50 (second compound 10 µM) greater than 10 µM. For the same compound, the viability, T/C [1] was 90.4%, the viability, T/C [2] was 106% and the viability, T/C [3] was 94.3%. It also gave a viability, T/C [4] of 87.5%, a viability, T/C [5] of 78.7% and a viability, T/C [6] of 74.7%. It also gave a viability, T/C [7] of 98.4%, a viability, T/C [8] of 91.1% and a viability, T/C [9] of 83%. For the same compound, the viability, T/C [10] was 87%, the viability, T/C [11] was 81.3% and the viability, T/C [12] was 68.5%. It also gave a viability, T/C [13] of 99.1%, a viability, T/C [14] of 89.4% and a viability, T/C [15] of 81.9%. It also gave a viability, T/C [16] of 82.6%, a viability, T/C [17] of 80.5% and a viability, T/C [18] of 65.6%. The viability, T/C [19] was 95%, the viability, T/C [20] was 86% and the viability, T/C [21] was 84.8%. For the same compound, the viability, T/C [22] was 82%, the viability, T/C [23] was 77.9% and the viability, T/C [24] was 61.5%. The viability, T/C [25] was 76.5%, the viability, T/C [26] was 71.2% and the viability, T/C [27] was 71.2%. It also gave a viability, T/C [28] of 73.5%, a viability, T/C [29] of 57.3% and a viability, T/C [30] of 54.5%. It also gave a viability, T/C [31] of 69.6%, a viability, T/C [32] of 73.1% and a viability, T/C [33] of 73.8%. The viability, T/C [34] was 60.5%, the viability, T/C [35] was 54.3% and the viability, T/C [36] was 50.5%.

Compound `O=c1[nH]cc(F)c(=O)[nH]1` + Cc1[nH]c2ccc(F)cc2c1-c1nc2c3cccnc3c3ncccc3c2[nH]1 has an IC50 (second compound 0.0316 µM) greater than 10 µM, an IC50 (second compound 0.1 µM) greater than 10 µM and an IC50 (second compound 0.316 µM) greater than 10 µM. For the same compound, the IC50 (second compound 1 µM) was greater than 10 µM, the IC50 (second compound 3.16 µM) was greater than 10 µM and the IC50 (second compound 10 µM) was greater than 10 µM. It also gave a viability, T/C [1] of 102%, a viability, T/C [2] of 91.1% and a viability, T/C [3] of 99.1%. It also gave a viability, T/C [4] of 92.3%, a viability, T/C [5] of 89% and a viability, T/C [6] of 108%. It also gave a viability, T/C [7] of 98.4%, a viability, T/C [8] of 77.3% and a viability, T/C [9] of 92.2%. The viability, T/C [10] was 82.2%, the viability, T/C [11] was 94.8% and the viability, T/C [12] was 98.6%. It also gave a viability, T/C [13] of 104%, a viability, T/C [14] of 74.1% and a viability, T/C [15] of 89.1%. It also gave a viability, T/C [16] of 62.4%, a viability, T/C [17] of 98.8% and a viability, T/C [18] of 87%. The viability, T/C [19] was 84.5%, the viability, T/C [20] was 91.8% and the viability, T/C [21] was 76.2%. It also gave a viability, T/C [22] of 82.3%, a viability, T/C [23] of 88.2% and a viability, T/C [24] of 89.2%. The viability, T/C [25] was 82.1%, the viability, T/C [26] was 81.7% and the viability, T/C [27] was 83.7%. For the same compound, the viability, T/C [28] was 69.8%, the viability, T/C [29] was 74.1% and the viability, T/C [30] was 66.3%. It also gave a viability, T/C [31] of 59.8%, a viability, T/C [32] of 73% and a viability, T/C [33] of 75.8%. For the same compound, the viability, T/C [34] was 75.9%, the viability, T/C [35] was 74.1% and the viability, T/C [36] was 78.3%.
